Results taken from patent publication US20260327191A1, “GSK3a INHIBITORS AND METHODS OF USE THEREOF” (Blueprint Medicines Corporation, priority 2023, published 2026).
pIC50: −log10 of the molar value.

Tests used:
[1] = target: T1, GSK3B (Homo sapiens, UniProt P49841); experiment: NanoBRET cellular target engagement assay, Nanoluc-GSK3B in HEK293 cells; assay type: cell-based; set-up: expressed in transfected cells; conditions: NanoBRET GSK3β IC50, HEK293 cells, tracer K-8, 2 hours, 37° C
[2] = target: T2, GSK3A (Homo sapiens, UniProt P49840); experiment: NanoBRET cellular target engagement assay, Nanoluc-GSK3A in HEK293 cells; assay type: cell-based; conditions: NanoBRET GSK3α IC50, HEK293 cells, tracer K-8, 2 hours, 37° C
T2 construct: expressed in transfected cells
T2 sequence (P49840 whole entry): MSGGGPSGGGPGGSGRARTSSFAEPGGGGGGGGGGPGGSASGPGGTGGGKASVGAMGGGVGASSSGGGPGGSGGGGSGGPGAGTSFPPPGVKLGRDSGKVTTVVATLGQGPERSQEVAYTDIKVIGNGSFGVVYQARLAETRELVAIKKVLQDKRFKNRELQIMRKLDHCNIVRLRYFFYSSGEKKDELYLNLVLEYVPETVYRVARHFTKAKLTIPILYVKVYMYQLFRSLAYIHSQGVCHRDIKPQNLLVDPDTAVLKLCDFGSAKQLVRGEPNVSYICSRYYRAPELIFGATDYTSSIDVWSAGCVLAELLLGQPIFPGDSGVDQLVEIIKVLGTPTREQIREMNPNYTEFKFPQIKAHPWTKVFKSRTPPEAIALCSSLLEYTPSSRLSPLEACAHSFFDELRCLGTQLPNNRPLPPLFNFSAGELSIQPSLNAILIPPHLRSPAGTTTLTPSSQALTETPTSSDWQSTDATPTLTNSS

[3] = target: T1, GSK3B; experiment: In vitro enzymatic activity assay, GSK3β; assay type: biochemical; set-up: Full length human GSK3α or GSK3B expressed as N-terminal GST fusion proteins; GST (N); purchased Carna Biosciences (Japan); host or cells: baculovirus host; conditions: 1.0 mM ATP, 1.0 μM peptide substrate, 120 min, 25° C, read-out: Enzyme GSK3β (IC50)
[4] = target: T3, human GSK3α (Homo sapiens, UniProt P49840); experiment: In vitro enzymatic activity assay, GSK3α; assay type: biochemical; conditions: 1.0 mM ATP, 1.0 μM peptide substrate, 120 min, 25° C, read-out: Enzyme GSK3α (IC50)
T3 construct: Full length human GSK3α or GSK3B expressed as N-terminal GST fusion proteins; GST (N); purchased Carna Biosciences (Japan); host or cells: baculovirus host
T3 sequence (P49840 whole entry, the tested form may be a part): as the sequence (P49840 whole entry) above

T1 sequence (P49841 whole entry): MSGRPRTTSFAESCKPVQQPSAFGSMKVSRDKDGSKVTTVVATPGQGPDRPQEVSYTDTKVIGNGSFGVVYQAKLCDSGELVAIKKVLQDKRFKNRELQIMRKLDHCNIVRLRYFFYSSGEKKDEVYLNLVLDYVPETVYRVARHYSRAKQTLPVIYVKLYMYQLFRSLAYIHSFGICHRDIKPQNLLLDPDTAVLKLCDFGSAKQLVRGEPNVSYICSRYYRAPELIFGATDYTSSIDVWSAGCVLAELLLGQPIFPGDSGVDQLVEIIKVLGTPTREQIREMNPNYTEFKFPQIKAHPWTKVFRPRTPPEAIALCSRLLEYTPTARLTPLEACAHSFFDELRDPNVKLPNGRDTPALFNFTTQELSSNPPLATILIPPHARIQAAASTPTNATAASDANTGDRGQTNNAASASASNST

SMILES	pIC50 [1]	pIC50 [2]	pIC50 [3]	pIC50 [4]
Cc1cc(C(F)F)cc(C)c1-n1cnc(N)c(C(=O)Nc2cncc(C3CCCC(C)N3)c2)c1=O (single isomer, unassigned) [Example 107]	6.36	8.41	6.17	8.00
Cc1cc(C(F)F)cc(C)c1-n1cnc(N)c(C(=O)Nc2cncc([C@H]3CCC[C@H](C)N3)c2)c1=O (single isomer, unassigned) [Example 108]	6.16	8.06	6.00	7.61
Cc1cc(C(F)CF)cc(C)c1-n1cnc(N)c(C(=O)Nc2cncc(C3CCCCCN3)c2)c1=O (single isomer, unassigned) [Example 112]	6.46	8.29	6.31	7.98
Cc1cc(C(F)CF)cc(C)c1-n1cnc(N)c(C(=O)Nc2cncc(C3CCCCCN3)c2)c1=O (single isomer, unassigned) [Example 115]	6.55	8.33	6.44	8.12
CNC(COC)c1cncc(NC(=O)c2c(N)ncn(-c3c(Cl)cc(C(F)(F)F)cc3Cl)c2=O)c1 (single isomer, unassigned) [Example 121, (R)-4-amino-1-(2,6-dichloro-4-(trifluoromethyl)phenyl)-N-(5-(2-methoxy-1-(methylamino)ethyl)pyridin-3-yl)-6-oxo-1,6-dihydropyrimidine-5-carboxamide or (S)-4-amino-1-(2,6-dichloro-4-(trifluoromethyl)phenyl)-N-(5-(2-methoxy-1-(methylamino)ethyl)pyridin-3-yl)-6-oxo-1,6-dihydropyrimidine-5-carboxamide]	6.40	8.47	6.51	8.42
CNC(COC)c1cncc(NC(=O)c2c(N)ncn(-c3c(Cl)cc(C(F)(F)F)cc3Cl)c2=O)c1 (single isomer, unassigned) [Example 122, (R)-4-amino-1-(2,6-dichloro-4-(trifluoromethyl)phenyl)-N-(5-(2-methoxy-1-(methylamino)ethyl)pyridin-3-yl)-6-oxo-1,6-dihydropyrimidine-5-carboxamide or (S)-4-amino-1-(2,6-dichloro-4-(trifluoromethyl)phenyl)-N-(5-(2-methoxy-1-(methylamino)ethyl)pyridin-3-yl)-6-oxo-1,6-dihydropyrimidine-5-carboxamide]	6.50	8.30	6.49	8.28
CCCOc1cc(C)c(-n2cnc(N)c(C(=O)Nc3cncc(C(C)N)c3)c2=O)c(C)c1 (single isomer, unassigned) [Example 126, (R)-4-amino-N-(5-(1-aminoethyl)pyridin-3-yl)-1-(2,6-dimethyl-4-propoxyphenyl)-6-oxo-1,6-dihydropyrimidine-5-carboxamide or (S)-4-amino-N-(5-(1-aminoethyl)pyridin-3-yl)-1-(2,6-dimethyl-4-propoxyphenyl)-6-oxo-1,6-dihydropyrimidine-5-carboxamide]	6.30	8.10	6.15	7.83
CCC(N)c1cncc(NC(=O)c2c(N)ncn(-c3c(C)cc(C(F)F)cc3C)c2=O)c1 (single isomer, unassigned) [Example 128, (R)-4-amino-N-(5-(1-aminopropyl)pyridin-3-yl)-1-(4-(difluoromethyl)-2,6-dimethylphenyl)-6-oxo-1,6-dihydropyrimidine-5-carboxamide or (S)-4-amino-N-(5-(1-aminopropyl)pyridin-3-yl)-1-(4-(difluoromethyl)-2,6-dimethylphenyl)-6-oxo-1,6-dihydropyrimidine-5-carboxamide]	6.26	8.11	5.93	7.72
CCOCc1cc(C)c(-n2cnc(N)c(C(=O)Nc3cncc(C(C)N)c3)c2=O)c(C)c1 (single isomer, unassigned) [Example 130, (R)-4-amino-N-(5-(1-aminoethyl)pyridin-3-yl)-1-(4-(ethoxymethyl)-2,6-dimethylphenyl)-6-oxo-1,6-dihydropyrimidine-5-carboxamide or (S)-4-amino-N-(5-(1-aminoethyl)pyridin-3-yl)-1-(4-(ethoxymethyl)-2,6-dimethylphenyl)-6-oxo-1,6-dihydropyrimidine-5-carboxamide]	6.34	8.28	6.23	7.87

Compounds with a higher pIC50 [1], results first:

pIC50 [1]	pIC50 [2]	pIC50 [3]	pIC50 [4]	SMILES
6.97	8.77	6.88	8.52	Cc1cc(C(F)CF)cc(C)c1-n1cnc(N)c(C(=O)Nc2cncc([C@H]3CCCCN3)c2)c1=O (single isomer, unassigned) [Example 113, 4-amino-1-(4-((R)-1,2-difluoroethyl)-2,6-dimethylphenyl)-6-oxo-N-(5-((R)-piperidin-2-yl)pyridin-3-yl)-1,6-dihydropyrimidine-5-carboxamide or 4-amino-1-(4-((S)-1,2-difluoroethyl)-2,6-dimethylphenyl)-6-oxo-N-(5-((R)-piperidin-2-yl)pyridin-3-yl)-1,6-dihydropyrimidine-5-carboxamide]
6.60	8.36	6.30	7.92	Cc1cc(C(F)CF)cc(C)c1-n1cnc(N)c(C(=O)Nc2cncc(C(C)N)c2)c1=O (single isomer, unassigned) [Example 114]
6.99	8.74	6.90	8.54	CNCc1cncc(NC(=O)c2c(N)ncn(-c3c(Cl)cc(C(F)CF)cc3Cl)c2=O)c1 (single isomer, unassigned) [Example 116, (R)-4-amino-1-(2,6-dichloro-4-(1,2-difluoroethyl)phenyl)-N-(5-((methylamino)methyl)pyridin-3-yl)-6-oxo-1,6-dihydropyrimidine-5-carboxamide or (S)-4-amino-1-(2,6-dichloro-4-(1,2-difluoroethyl)phenyl)-N-(5-((methylamino)methyl)pyridin-3-yl)-6-oxo-1,6-dihydropyrimidine-5-carboxamide]
7.09	8.85	6.98	8.66	CNCc1cncc(NC(=O)c2c(N)ncn(-c3c(Cl)cc(C(F)CF)cc3Cl)c2=O)c1 (single isomer, unassigned) [Example 117, (R)-4-amino-1-(2,6-dichloro-4-(1,2-difluoroethyl)phenyl)-N-(5-((methylamino)methyl)pyridin-3-yl)-6-oxo-1,6-dihydropyrimidine-5-carboxamide or (S)-4-amino-1-(2,6-dichloro-4-(1,2-difluoroethyl)phenyl)-N-(5-((methylamino)methyl)pyridin-3-yl)-6-oxo-1,6-dihydropyrimidine-5-carboxamide]
7.09	8.92	6.98	8.68	CCOCc1cc(Cl)c(-n2cnc(N)c(C(=O)Nc3cncc(C(N)CC)c3)c2=O)c(Cl)c1 (single isomer, unassigned) [Example 129, (R)-4-amino-N-(5-(1-aminopropyl)pyridin-3-yl)-1-(2,6-dichloro-4-(ethoxymethyl)phenyl)-6-oxo-1,6-dihydropyrimidine-5-carboxamide or (S)-4-amino-N-(5-(1-aminopropyl)pyridin-3-yl)-1-(2,6-dichloro-4-(ethoxymethyl)phenyl)-6-oxo-1,6-dihydropyrimidine-5-carboxamide]
6.74	8.70	6.64	8.26	CCOCc1cc(C)c(-n2cnc(N)c(C(=O)Nc3cncc(C4CCCCCN4)c3)c2=O)c(C)c1 (single isomer, unassigned) [Example 132, (R)-4-amino-N-(5-(azepan-2-yl)pyridin-3-yl)-1-(4-(ethoxymethyl)-2,6-dimethylphenyl)-6-oxo-1,6-dihydropyrimidine-5-carboxamide or (S)-4-amino-N-(5-(azepan-2-yl)pyridin-3-yl)-1-(4-(ethoxymethyl)-2,6-dimethylphenyl)-6-oxo-1,6-dihydropyrimidine-5-carboxamide]
6.69	8.49	6.67	8.47	CCOc1cc(Cl)c(-n2cnc(N)c(C(=O)Nc3cncc(C(N)COC)c3)c2=O)c(Cl)c1 (single isomer, unassigned) [Example 134, (R)-4-amino-N-(5-(1-amino-2-methoxyethyl)pyridin-3-yl)-1-(2,6-dichloro-4-ethoxyphenyl)-6-oxo-1,6-dihydropyrimidine-5-carboxamide or (S)-4-amino-N-(5-(1-amino-2-methoxyethyl)pyridin-3-yl)-1-(2,6-dichloro-4-ethoxyphenyl)-6-oxo-1,6-dihydropyrimidine-5-carboxamide]
6.58	8.35	6.73	8.49	CCOc1cc(Cl)c(-n2cnc(N)c(C(=O)Nc3cncc(C4COCCCN4)c3)c2=O)c(Cl)c1 (single isomer, unassigned) [Example 135, (R)-N-(5-(1,4-oxazepan-3-yl)pyridin-3-yl)-4-amino-1-(2,6-dichloro-4-ethoxyphenyl)-6-oxo-1,6-dihydropyrimidine-5-carboxamide or (S)-N-(5-(1,4-oxazepan-3-yl)pyridin-3-yl)-4-amino-1-(2,6-dichloro-4-ethoxyphenyl)-6-oxo-1,6-dihydropyrimidine-5-carboxamide]
